From patent publication US8227511B2, “Substituted chromanol derivatives and their use” (Bayer Intellectual Property GmbH, priority 2006, dated 2012) come the findings set out here.

The target in test [1] is T1, CETP (Homo sapiens, UniProt P11597).
T1 construct: CETP is obtained in partially purified form from human plasma by differential centrifugation and column chromatography and used for the test; from tissue; host or cells: human plasma
T1 sequence (P11597 18-493): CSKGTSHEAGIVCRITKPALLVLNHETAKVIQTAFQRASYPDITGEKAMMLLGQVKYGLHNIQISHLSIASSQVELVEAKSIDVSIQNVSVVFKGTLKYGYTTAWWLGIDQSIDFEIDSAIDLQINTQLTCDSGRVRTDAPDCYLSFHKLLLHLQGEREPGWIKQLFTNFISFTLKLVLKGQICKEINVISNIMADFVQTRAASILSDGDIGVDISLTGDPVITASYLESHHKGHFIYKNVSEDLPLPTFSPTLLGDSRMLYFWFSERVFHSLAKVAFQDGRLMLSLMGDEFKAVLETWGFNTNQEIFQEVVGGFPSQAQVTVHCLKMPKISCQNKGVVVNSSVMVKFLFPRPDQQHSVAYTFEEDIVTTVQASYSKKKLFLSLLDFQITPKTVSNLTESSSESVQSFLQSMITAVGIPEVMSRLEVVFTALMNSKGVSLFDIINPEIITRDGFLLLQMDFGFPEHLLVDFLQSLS
In words: CETP fluorescence test with enriched CETP. It counts as biochemical. The following applies: enriched CETP fraction from human plasma; transfer of fluorescent cholesterol ester between liposomes; 37° C. for 4 h. How it is done:
(§1) CETP is obtained in partially purified form from human plasma by differential centrifugation and column chromatography and used for the test. To this end, human plasma is adjusted to a density of 1.21 g per ml using NaBr and centrifuged at 4° C. at 50 000 rpm for 18 h. The bottom fraction (d>1.21 g/ml) is applied to a Phenyl-Sepharose 26/10 HP fast flow-column (Pharmacia), washed with PBS buffer and then eluted with distilled water. 10 parts of PBS buffer and 1% (w/v) BSA are added to the eluate. The CETP-active fractions are pooled.
Measurement of the CETP-catalyzed transfer of a fluorescent cholesterol ester between liposomes [modified according to the procedure of Bisgaier et al., J. Lipid Res. 34, 1625 (1993)]:
For the production of the donor liposomes, 1 mg of cholesteryl 4,4-difluoro-5,7-dimethyl-4-bora-3a,4a-diaza-s-indacene-3-dodecanoate (cholesteryl BODIPY® FL C12, Molecular Probes) is dissolved in 2 ml of chloroform with 5.35 mg of triolein and 6.67 mg of phosphatidylcholine. The solvent is removed at medium temperature in a SpeedVac and the residue is dried under high vacuum for 1 h. The residue is then dissolved in 600 μl of dioxane with gentle warming in an ultrasonic bath and this solution is added very slowly with ultrasonication to 63 ml of 50 mM Tris/HCl, 150 mM NaCl, 2 mM EDTA buffer pH 7.3 at room temperature. The suspension is then ultrasonicated under an N2 atmosphere for 30 minutes in the Branson ultrasonic bath at about 50 watts, the temperature being kept at about 20° C.
The acceptor liposomes are obtained analogously from 86 mg of cholesteryl oleate, 20 mg of triolein and 100 mg of phosphatidylcholine dissolved in 1.2 ml of dioxane and 114 ml of the above buffer by ultrasonication at 50 watts (20° C.) for 30 minutes.
For testing, a test mix consisting of 1 part of above buffer, 1 part of donor liposomes and 2 parts of acceptor liposomes is used.
50 μl of test mix are treated with 48 μl of enriched CETP fraction (1-3 μg), obtained from human plasma by means of hydrophobic chromatography, and 2 μl of a solution of the substance to be investigated in DMSO and incubated at 37° C. for 4 h.
The change in the fluorescence at 485/535 nm is a measure of the CE transfer; the inhibition of the transfer in comparison to the control batch without substance is determined.

The next test concerns transgenic hCETP mice. Description: Measurement of the in vivo activity in transgenic hCETP mice. As to conditions: perorally once a day on 3 days, percentage change compared with the starting value. The protocol:
To determine the oral action on lipoproteins and triglycerides, test substance is administered perorally to transgenic mice [Dinchuk et al., BBA, 1295-1301 (1995)] using a stomach tube once a day on 3 days. For this purpose, the substances are dissolved in 10% Solutol HS 15/10% ethanol/80% of a 0.9% strength sodium chloride solution; the administration volume is generally 10 ml per kg of body weight. Before the start of the experiment, blood is withdrawn from the mice retro-orbitally in order to determine cholesterol and triglycerides in the serum. The serum is obtained as described above for hamsters by incubation at room temperature for 30 min and subsequent centrifugation at 6000 g. On the day after the last administration of substance, blood is again withdrawn from the mice in order to determine lipoproteins and triglycerides. The changes in the parameters measured are expressed as the percentage change compared with the starting value.

Test [2] addresses T1, CETP. Description: CETP-SPA test. It counts as biochemical. The following applies: transfer of 3H-cholesterol ester from human HDL to biotinylated LDL; 37° C. for 18 h. How it is done:
as §1
For testing of the CETP activity, the transfer of ^3H-cholesterol ester from human HD lipoproteins to biotinylated LD lipoproteins is measured. The reaction is ended by addition of streptavidin-SPA® beads (Amersham) and the transferred radioactivity is determined directly in a liquid scintillation counter.
In the test batch, 10 μl of HDL-3H-cholesterol ester (about 50 000 cpm) are incubated at 37° C. for 18 h with 10 μl of biotin-LDL (Amersham) in 50 mM Hepes/0.15 M NaCl/0.1% bovine serum albumin (RSA)/0.05% NaN3 pH 7.4 containing 10 μl of CETP (1 mg/ml) and 3 μl of a solution of the substance to be tested (dissolved in 10% DMSO/1% RSA). 200 μl of the SPA-streptavidin bead solution (TRKQ 7005) are then added, incubated further with shaking for 1 h and then measured in a scintillation counter. Corresponding incubations with 10 μl of buffer, 10 μl of CETP at 4° C. and 10 μl of CETP at 37° C. serve as controls.
The activity transferred in the control batches with CETP at 37° C. is rated as 100% transfer. The substance concentration at which this transfer is reduced to half is specified as the IC50 value.

Take `CC(C)c1cc2c(c(-c3ccc(F)cc3)c1[C@@H](F)c1ccc(C(F)(F)F)cc1)[C@@H](O)CC(C)(C)O2` [Example 7, (4S)-5-(4-Fluorophenyl)-6-{(S)-fluoro[4-(trifluoromethyl)phenyl]methyl}-7-isopropyl-2,2-dimethylchroman-4-ol]: the 50% inhibitory concentration (IC50) against CETP [1] was determined as 32 nM; against CETP [2] it was 20 nM. For the same compound, the “% increase of HDL after 3 d (dose: 3 × 3 mg/kg)” value (“% increase of HDL after 3 d” below) in the test with transgenic hCETP mice came to 67%.

On to `CC(C)c1cc2c(c(-c3ccc(F)cc3)c1[C@@H](F)c1ccc(C(F)(F)F)cc1)[C@@H](O)CC1(CCC1)O2` [Example 30, (4S)-5-(4-Fluorophenyl)-6-{(S)-fluoro[4-(trifluoromethyl)phenyl]methyl}-7-isopropyl-3,4-dihydro-spiro[chromen-2,1′-cyclobutan]-4-ol], for which the IC50 against CETP [1] is 18 nM; on CETP [2] it was 12 nM. The “% increase of HDL after 3 d” value with transgenic hCETP mice was found to be 83%.

Take `CC(C)c1cc2c(c(-c3ccc(F)cc3)c1[C@@H](O)c1ccc(C(F)(F)F)cc1)[C@@H](O)CC1(CCC1)O2` [Example 28, (4S)-5-(4-Fluorophenyl)-6-{(S)-hydroxy[4-(trifluoromethyl)phenyl]methyl}-7-isopropyl-3,4-dihydrospiro[chromen-2,1′-cyclobutan]-4-ol]: the results for the IC50 at CETP [1] and against CETP [2] were 77 nM and 22 nM, respectively. Also, the “% increase of HDL after 3 d” value in the test on transgenic hCETP mice came out at 25%.

`CC(C)c1cc2c(c(-c3ccc(F)cc3)c1Cc1ccc(C(C)(C)C)cc1)[C@@H](O)CC1(CCC1)O2` [Example 36, (4S)-6-(4-tert-Butylbenzyl)-5-(4-fluorophenyl)-7-isopropyl-3,4-dihydrospiro[chromen-2,1′-cyclo-butan]-4-ol]: the IC50 amounted to 28 nM on CETP [1] and 6 nM against CETP [2]. Further, the “% increase of HDL after 3 d” value in the test with transgenic hCETP mice is 40%.

With `CC(C)c1cc2c(c(-c3ccc(F)cc3)c1Cc1ccc(C(F)(F)F)cc1)[C@@H](O)CC1(CCC1)O2` [Example 32, (4S)-5-(4-Fluorophenyl)-7-isopropyl-6-[4-(trifluoromethyl)benzyl]-3,4-dihydrospiro[chromen-2,1′-cyclobutan]-4-ol], the results for the IC50 on CETP [1] and against CETP [2] were 19 nM and 4 nM, respectively. The “% increase of HDL after 3 d” value in the test with transgenic hCETP mice stood at 31%.

In the case of `CC(C)c1cc2c(c(C3=CCCCC3)c1C(=O)c1ccc(C(F)(F)F)cc1)[C@@H](O)CC(C)(C)O2` [Example 19, (5-Cyclohex-1-en-1-yl-4-hydroxy-7-isopropyl-2,2-dimethyl-3,4-dihydro-2H-chromen-6-yl)[4-(tri-fluoromethyl)phenyl]methanone], the IC50 at CETP [1] turned out to be 200 nM; against CETP [2] it was 300 nM.

On to `CC(C)c1cc2c(c(C3CCCC3)c1[C@@H](O)c1ccc(C(F)(F)F)cc1)[C@@H](O)CC(C)(C)O2` [Example 24, (4S)-5-Cyclopent-1-yl-6-{(S)-hydroxy[4-(trifluoromethyl)phenyl]methyl}-7-isopropyl-2,2-dimethylchroman-4-ol], for which the IC50 at CETP [1] came out at 30 nM; on CETP [2], 16 nM.

As for `CC(C)c1cc2c(c(C3CCCC3)c1[C@@H](F)c1ccc(C(F)(F)F)cc1)[C@@H](O)CC1(CCC1)O2` [Example 42, (4S)-5-Cyclopentyl-6-{(S)-fluoro[4-(trifluoromethyl)phenyl]methyl}-7-isopropyl-3,4-dihydrospiro-[chroman-2,1′-cyclobutan]-4-ol], the IC50 against CETP [1] came to 26 nM; on CETP [2] it was 21 nM. For the same compound, the “% increase of HDL after 3 d” value in the test on transgenic hCETP mice is recorded as 81%.

Consider `CC(C)c1cc2c(c(-c3ccc(F)cc3)c1[C@@H](O)c1ccc(OC(F)(F)F)cc1)[C@@H](O)CC(C)(C)O2` [Example 11, (4S)-5-(4-Fluorophenyl)-6-{(S)-hydroxy[4-(trifluoromethoxy)phenyl]methyl}-7-isopropyl-2,2-di-methylchroman-4-ol], for which the IC50 on CETP [1] is 63 nM; against CETP [2], 51 nM.
